Results taken from patent US20160129122A1, “FATTY ACID ANTIVIRAL CONJUGATES AND THEIR USES” (Catabasis Pharmaceuticals, Inc., priority 2011, published 2016).
Like-named read-outs stand apart in the source and are kept apart here.

How the values were obtained:
[1] = test system: NF-κB; test: NF-κB luciferase reporter assay in LPS-stimulated RAW 264.7 macrophages; type: cell-based; settings: Mus musculus
Method: RAW 264.7 cells stably expressing a 3×NFkB response element-drive luciferase reporter were seeded into 96 well plates in sera-free medium (Optimem) 18 hours prior to compound application. Compounds of the invention were prepared by first making 100 mM stock solutions in EtOH. […] Cells were then stimulated with 200 ng/ml LPS or vehicle control for 3 hours in the presence of the compounds of the invention. A set of six vehicles was left unstimulated with LPS in order to measure the assay floor. AlamarBlue viability dye (Invitrogen) was added to cells simultaneously with the delivery of LPS (final AlamarBlue concentration of 10%). After the 3 h incubation period with LPS, cell viability was measured by reading fluorescence (excitation 550 nm, emission 595 nm) with a Perkin Elmer Victor V plate reader. Then cell media was aspirated from each well. Luciferase signal was then developed by addition of the Britelite Plus reagent (Perkin Elmer). Luciferase activity was measured with the Perkin Elmer Victor V plate reader. NF-κB activity was expressed as a percent of the vehicle control wells (stimulated with LPS). Compounds were tested at 6 dose point titrations in triplicate to determine IC50 values.

[2] = test system: HIV-1IIIB strain; test: HIV-1 cytoprotection assay (CEM-SS cells, MTS dye reduction); type: cell-based
[3] = RAW264.7, RAW 264.7 cells with 3×NFkB response element luciferase reporter, 2 h pretreatment, 200 ng/ml LPS for 3 h, read-out: NF-kB inhibitory activity IC50
[4] = Human immunodeficiency virus 1, 144 h, CEM-SS cells, HIV-1 IIIB strain, 6 days incubation, cytoprotection by MTS, read-out: IC50 HIV-1IIIB strain
[5] = RAW264.7, read-out: NF-kB inhibitory activity IC50 μM
[6] = Human immunodeficiency virus 1, IIIB, CEM-SS, 144 h, read-out: IC50 HIV-1IIIB strain (nM)

Structure (SMILES) | IC50 [1, 3] [µM] | IC50 [2, 4] [nM] | IC50 [1, 5] [µM] | IC50 [2, 6] [nM]
CC/C=C\C/C=C\C/C=C\C/C=C\C/C=C\C/C=C\CCC(=O)NCCNC(=O)OC[C@H]1OC(n2cc(C)c(=O)[nH]c2=O)C[C@@H]1N=[N+]=[N-] (stereo partly shown) [Compound V-5] | < 50 | > 100 | – | –
CC/C=C\C/C=C\C/C=C\C/C=C\C/C=C\C/C=C\CCC(=O)NCCOCCNC(=O)OC[C@H]1OC(n2cc(C)c(=O)[nH]c2=O)C[C@@H]1N=[N+]=[N-] (stereo partly shown) [Compound V-8] | 50 to 200 | – | – | –
CC/C=C\C/C=C\C/C=C\C/C=C\C/C=C\C/C=C\CCC(=O)Nc1ccn(C2CS[C@H](CO)O2)c(=O)n1 (stereo partly shown) [Compound V-18] | > 200 | < 100 | – | –
CC/C=C\C/C=C\C/C=C\C/C=C\C/C=C\C/C=C\CCC(=O)NCCNC(=O)OC[C@@H]1OC(n2ccc(N)nc2=O)CS1 (stereo partly drawn) [Compound V-21, ((2R,5S)-5-(4-amino-2-oxopyrimidin-1(2H)-yl)-1,3-oxathiolan-2-yl)methyl(2-((4Z,7Z,10Z,13Z,16Z,19Z)-docosa-4,7,10,13,16,19-hexaenamido)ethyl)carbamate] | – | – | 50 to 200 | < 100
CC(C)CN(C[C@@H](O)[C@H](Cc1ccccc1)NC(=O)O[C@H]1CO[C@H]2OCC[C@H]21)S(=O)(=O)c1ccc(N)cc1 [Darunavir, darunavir, reference compound] | – | – | > 200 | –
CC/C=C\C/C=C\C/C=C\C/C=C\C/C=C\C/C=C\CCC(=O)NCCNP(=O)(OC[C@H]1OC(n2cc(C)c(=O)[nH]c2=O)C[C@@H]1N=[N+]=[N-])Oc1ccccc1 (stereo partly shown) [II-25] | – | – | < 50 | < 100
CC/C=C\C/C=C\C/C=C\C/C=C\C/C=C\CCCC(=O)NCCNP(=O)(OC)OC[C@H]1OC(n2cc(C)c(=O)[nH]c2=O)C[C@@H]1N=[N+]=[N-] (stereo partly shown) [II-30] | – | – | < 50 | > 100
C=C1[C@H](COP(=O)(NCCNC(=O)CCC/C=C\C/C=C\C/C=C\C/C=C\C/C=C\CC)OC)[C@@H](O)C[C@@H]1n1cnc2c(=O)nc(N)[nH]c21 (stereo partly drawn) [II-48, ((1R,3S,5S)-3-(2-amino-6-oxo-3H-purin-9(6H)-yl)-5-hydroxy-2-methylenecyclopentyl)methyl methyl (2-((5Z,8Z,11Z,14Z,17Z)-icosa-5,8,11,14,17-pentaenamido)ethyl)phosphoramidate] | – | – | 50 to 200 | –
CC/C=C\C/C=C\C/C=C\C/C=C\C/C=C\C/C=C\CCC(=O)NCCNP(=O)(OC[C@@H]1O[C@H](n2ccc(N)nc2=O)CS1)Oc1ccccc1 (stereo partly drawn) [II-67, ((2R,5S)-5-(4-amino-2-oxopyrimidin-1(2H)-yl)-1,3-oxathiolan-2-yl)methyl phenyl (2-((4Z,7Z,10Z,13Z,16Z,19Z)-docosa-4,7,10,13,16,19-hexaenamido)ethyl)phosphoramidate] | – | – | < 50 | < 100
CC/C=C\C/C=C\C/C=C\C/C=C\C/C=C\CCCC(=O)NCCNP(=O)(OC)OC[C@@H]1O[C@H](n2ccc(N)nc2=O)CS1 (stereo partly drawn) [II-70, ((2R,5S)-5-(4-amino-2-oxopyrimidin-1(2H)-yl)-1,3-oxathiolan-2-yl)methyl methyl (2-((5Z,8Z,11Z,14Z,17Z)-icosa-5,8,11,14,17-pentaenamido)ethyl)phosphoramidate] | – | – | 50 to 200 | –
CC/C=C\C/C=C\C/C=C\C/C=C\C/C=C\C/C=C\CCC(=O)Nc1ccc(S(=O)(=O)N(CC(C)C)C[C@@H](O)[C@H](Cc2ccccc2)NC(=O)O[C@H]2CO[C@H]3OCC[C@H]32)cc1 [VII-1, (3R,3aS,6aR)-hexahydrofuro[2,3-b]furan-3-yl((2S,3R)-4-(4-((4Z,7Z,10Z,13Z,16Z,19Z)-docosa-4,7,10,13,16,19-hexaenamido)-N-isobutylphenylsulfonamido)-3-hydroxy-1-phenylbutan-2-yl)carbamate] | – | – | 50 to 200 | < 100
CC/C=C\C/C=C\C/C=C\C/C=C\C/C=C\CCCC(=O)Nc1ccc(S(=O)(=O)N(CC(C)C)C[C@@H](O)[C@H](Cc2ccccc2)NC(=O)O[C@H]2CO[C@H]3OCC[C@H]32)cc1 [VII-2, (3R,3aS,6aR)-hexahydrofuro[2,3-b]furan-3-yl((2S,3R)-3-hydroxy-4-(4-((5Z,8Z,11Z,14Z,17Z)-icosa-5,8,11,14,17-pentaenamido)-N-isobutylphenylsulfonamido)-1-phenylbutan-2-yl)carbamate] | – | < 100 | – | –
